For series [1], the target named is T1, Protein deacetylase HDAC6 (Homo sapiens, UniProt Q9UBN7).
T1 sequence (Q9UBN7 whole entry): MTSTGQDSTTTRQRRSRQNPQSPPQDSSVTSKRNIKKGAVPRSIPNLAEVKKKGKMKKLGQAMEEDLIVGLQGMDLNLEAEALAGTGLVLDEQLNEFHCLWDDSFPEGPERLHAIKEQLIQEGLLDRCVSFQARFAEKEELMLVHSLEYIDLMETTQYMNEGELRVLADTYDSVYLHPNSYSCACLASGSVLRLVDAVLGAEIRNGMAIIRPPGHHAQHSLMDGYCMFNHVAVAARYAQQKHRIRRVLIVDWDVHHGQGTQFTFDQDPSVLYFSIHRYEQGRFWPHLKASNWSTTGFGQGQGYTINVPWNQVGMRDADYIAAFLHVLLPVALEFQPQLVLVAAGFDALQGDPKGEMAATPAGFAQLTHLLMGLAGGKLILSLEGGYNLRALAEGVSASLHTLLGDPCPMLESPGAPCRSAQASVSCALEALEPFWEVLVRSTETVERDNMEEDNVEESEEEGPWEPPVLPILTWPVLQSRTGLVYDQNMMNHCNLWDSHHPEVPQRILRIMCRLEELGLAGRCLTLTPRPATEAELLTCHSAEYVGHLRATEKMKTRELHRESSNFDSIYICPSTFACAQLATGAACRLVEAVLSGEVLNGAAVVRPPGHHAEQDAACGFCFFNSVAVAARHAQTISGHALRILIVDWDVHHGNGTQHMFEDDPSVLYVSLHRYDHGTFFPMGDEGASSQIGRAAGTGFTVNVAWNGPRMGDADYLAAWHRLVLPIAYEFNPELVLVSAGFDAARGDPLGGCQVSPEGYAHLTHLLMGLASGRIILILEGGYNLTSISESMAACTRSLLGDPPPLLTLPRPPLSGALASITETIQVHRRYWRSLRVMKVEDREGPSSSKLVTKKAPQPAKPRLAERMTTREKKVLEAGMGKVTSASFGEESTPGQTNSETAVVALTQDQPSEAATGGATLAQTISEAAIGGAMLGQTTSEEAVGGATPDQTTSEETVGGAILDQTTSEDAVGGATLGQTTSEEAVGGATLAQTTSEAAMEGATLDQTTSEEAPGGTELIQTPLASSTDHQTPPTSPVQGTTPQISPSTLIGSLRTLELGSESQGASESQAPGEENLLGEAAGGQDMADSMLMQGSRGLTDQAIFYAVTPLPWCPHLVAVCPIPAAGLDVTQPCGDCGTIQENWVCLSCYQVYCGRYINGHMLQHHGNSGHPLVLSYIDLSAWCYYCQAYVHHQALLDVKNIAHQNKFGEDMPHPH
The series can be described thus: Inhibition of HDAC6 (unknown origin).

Series [2] can be described thus: Neurotoxicity against human SH-SY5Y cells assessed as reduction in cell viability at 10 uM measured after 24 hrs by MTT assay. Type of series: toxicity, cell-based. For orientation: Tetrazolium assays rely on reduction of a dye to a coloured formazan, in cell work by metabolically active cells.
The nature of series [3]: Neurotoxicity against rat PC-12 cells assessed as reduction in cell viability at 10 uM measured after 24 hrs by MTT assay. Format: toxicity, cell-based. The following applies: pc-12, 24 h.
Series [4] is described as follows: Neurotoxicity against human SH-SY5Y cells assessed as cell survival rate at 10 uM measured after 24 hrs by MTT assay relative to control. Format: toxicity, cell-based. The following applies: read-out: Survival.
A short description of series [5]: Neurotoxicity against rat PC-12 cells assessed as cell survival rate at 10 uM measured after 24 hrs by MTT assay relative to control. Type of series: toxicity, cell-based. The following applies: read-out: Survival.
A short description of series [6]: Antioxidant activity assessed as DPPH scavenging activity incubated for 0.5 hrs by absorbance based assay. Type of series: functional.
Series [7] in a line: Antioxidant activity assessed as ABTS radical scavenging activity measured after 30 mins by absorbance based analysis. Type of series: functional.
The species named for a further series is Danio rerio. The series can be described thus: Cognitive improvement ability in scopolamine induced zebrafish alzheimer disease model assessed as improvement in motor activity by measuring increase in total distance of swimming at 20 mg/L pretreated with scopolamine for 30 mins followed by compound addition for 3 mins by T-maze test. Format: functional, organism-based.

In a further series the target is Histone deacetylase 1 (Homo sapiens, UniProt Q13547). The series can be described thus: Inhibition of HDAC1 (unknown origin).
Histone deacetylase 1, sequence (Q13547 whole entry): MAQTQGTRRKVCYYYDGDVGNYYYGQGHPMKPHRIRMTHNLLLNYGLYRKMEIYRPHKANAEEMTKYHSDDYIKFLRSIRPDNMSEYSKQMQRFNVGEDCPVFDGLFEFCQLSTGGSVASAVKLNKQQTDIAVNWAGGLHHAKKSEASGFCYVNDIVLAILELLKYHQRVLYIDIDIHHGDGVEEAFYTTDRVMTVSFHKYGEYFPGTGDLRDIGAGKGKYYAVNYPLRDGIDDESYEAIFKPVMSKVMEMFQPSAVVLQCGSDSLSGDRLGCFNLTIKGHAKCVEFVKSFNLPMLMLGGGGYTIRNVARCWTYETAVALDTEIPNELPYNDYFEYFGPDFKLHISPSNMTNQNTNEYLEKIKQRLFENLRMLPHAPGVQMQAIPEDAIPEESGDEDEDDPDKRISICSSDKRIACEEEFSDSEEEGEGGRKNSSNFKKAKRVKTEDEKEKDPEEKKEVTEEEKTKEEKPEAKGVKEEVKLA
In series [8] the test system is SH-SY5Y. The series can be described thus: Neuroprotective activity against 6-OHDA-induced oxidative damage in human SH-SY5Y cells assessed as increase in cell survival at 1 to 10 uM pretreated for 4 hrs followed by 100 uM 6-OHDA stimulation and measured after 24 hrs by MTT assay. Type of series: functional, cell-based. The following applies: dose 1-10 µM, time 28.0 hrs.

The subject of series [9] is PC-12. The series can be described thus: Neuroprotective activity against H2O2-induced oxidative damage in rat PC-12 cells assessed as increase in Nrf2 protein expression at 10 uM pretreated for 4 hrs followed by H2O2 stimulation and measured after 24 hrs by Western blot analysis. Format: functional, cell-based. The following applies: time 28.0 hrs. For orientation: In western blotting, separated proteins are transferred to a membrane and probed.

Series [10] relates to PC-12. The series can be described thus: Neuroprotective activity against H2O2-induced oxidative damage in rat PC-12 cells assessed as increase in catalase protein expression at 10 uM pretreated for 4 hrs followed by H2O2 stimulation and measured after 24 hrs by Western blot analysis. The following applies: time 28.0 hrs. Format: functional, cell-based.
In series [11] the test system is PC-12. The series can be described thus: Neuroprotective activity against H2O2-induced oxidative damage in rat PC-12 cells assessed as SOD activity at 10 uM pretreated for 4 hrs followed by H2O2 stimulation and measured after 24 hrs by WST-8 assay. The following applies: time 28 hrs. Type of series: functional.
Series [12] concerns PC-12. The series can be described thus: Neuroprotective activity against 6-OHDA-induced oxidative damage in rat PC-12 cells assessed as increase in cell survival at 1 to 10 uM pretreated for 4 hrs followed by 500 uM 6-OHDA stimulation and measured after 24 hrs by MTT assay. Format: functional, cell-based. The following applies: dose 1-10 µM, time 28.0 hrs.
Series [13] has as its system SH-SY5Y. Nature of the series: Neuroprotective activity against H2O2-induced oxidative damage in human SH-SY5Y cells assessed as increase in cell survival pretreated for 4 hrs followed by 200 uM H2O2 stimulation and measured after 24 hrs by MTT assay. The following applies: dose 1-10 µM, time 28.0 hrs. Type of series: functional, cell-based.
The subject of series [14] is PC-12. The series can be described thus: Neuroprotective activity against H2O2-induced oxidative damage in rat PC-12 cells assessed as increase in cell survival pretreated for 4 hrs followed by 800 uM H2O2 stimulation and measured after 24 hrs by MTT assay. Type of series: functional, cell-based. The following applies: dose 1-10 µM, time 28.0 hrs.
In series [15] the test system is PC-12. Nature of the series: Neuroprotective activity against H2O2-induced oxidative damage in rat PC-12 cells assessed as increase in cell survival at 10 uM pretreated for 4 hrs followed by 800 uM H2O2 stimulation and measured after 24 hrs by MTT assay. Type of series: functional, cell-based. The following applies: time 28.0 hrs.
Series [16] deals with SH-SY5Y. The series can be described thus: Neuroprotective activity against H2O2-induced oxidative damage in human SH-SY5Y cells assessed as increase in cell survival at 10 uM pretreated for 4 hrs followed by 200 uM H2O2 stimulation and measured after 24 hrs by MTT assay. Type of series: functional, cell-based. The following applies: time 28.0 hrs.

Activity calls are given as the source filed them. The calls are words filed in the database; no cut-off is given here.

Data on 18 molecules can be found in ChEMBL document CHEMBL5579843, “Multimechanism biological profiling of tetrahydro-β-carboline analogues as selective HDAC6 inhibitors for the treatment of Alzheimer's disease” (Eur J Med Chem, 2024).

Broadly, the IC50 is the concentration that inhibits the measured activity by half. `O=C(NO)c1ccc(C2NCCc3c2[nH]c2ccccc32)cc1` (centres undefined) gave a concentration for half-maximal inhibition (IC50) in series [1] of over 1000 nM.
`O=C(/C=C/c1ccc(CN2CCc3[nH]c4ccccc4c3C2)cc1)NO`: the Activity result in series [2] and in [3] was “Toxic” throughout.
Turning to `O=C(CCCCCCC(=O)Nc1ccccc1)NO` [VORINOSTAT], the viability at 24 h, 10 µM in series [4] and in series [5] was under 80% each time.
As for `O=C(NO)c1ccc(CN2CCc3[nH]c4ccc(F)cc4c3C2)cc1`, the half-maximal inhibitory concentration (IC50) in [6] amounted to 21 µM; in [7], 9.96 µM.
In the same order, the values of `O=C(NO)c1ccc(CN2CCc3[nH]c4ccccc4c3C2)cc1` are 26.5 µM and 17.2 µM.
In the same order, the values of `Cc1ccc2[nH]c3c(c2c1)CN(Cc1ccc(C(=O)NO)cc1)CC3` are 28.2 µM and 9.97 µM.
For the molecule `COc1ccc2c3c1O[C@H]1C[C@@H](O)C=C[C@@]31CCN(C)C2`, the outcome in the series filed under Danio rerio was Active.
As to `COc1ccc2[nH]c3c(c2c1)CCN(Cc1ccc(/C=C/C(=O)NO)cc1)C3`, the Activity entry in series [2] and in [3] was “Toxic” in each case. For the same molecule, the IC50 was determined as 0.0108 µM against Histone deacetylase 1 and 19.7 nM in [1].
Take `CN1CCc2c(c3ccccc3n2Cc2ccc(C(=O)NO)cc2)C1` [TUBASTATIN A]: the result with SH-SY5Y [8], in the series on PC-12 [9], with PC-12 [10] and in the series on PC-12 [12] was Active. In addition, the Activity is 13.7 U/mg in the series with PC-12 [11], “Dose-Dependent Effect” in the series on SH-SY5Y [13] and “Dose-Dependent Effect” in the series on PC-12 [14]. Besides, the results for the IC50 in [6] and in [7] were 28.2 µM and 12.1 µM, respectively.
For the molecule `O=C(NO)c1ccc(CN2CCc3c([nH]c4ccccc34)C2)cc1`, the IC50 against Histone deacetylase 1 came out at 16.5 µM; in series [6], 35.6 µM; in [7], 11.4 µM; in [1], 13.8 nM.
`O=C(NO)c1ccc(C2c3[nH]c4ccccc4c3CCN2Cc2ccccc2)cc1` (centres undefined) had an IC50 in [1] of over 1000 nM.
At Histone deacetylase 1, `O=C(NO)c1ccc(CNC(=O)[C@@H]2Cc3c([nH]c4ccccc34)[C@@H](c3ccc(Cl)cc3)N2CC2CC2)cc1` returned an IC50 of 0.494 µM.
Consider `O=C(CCCCCC(=O)N1CCc2c([nH]c3ccccc23)C1)NO`, for which the outcome in the series with PC-12 [15] and with SH-SY5Y [16] was inactive. Besides, the IC50 in series [6] was 28.4 µM; in [7], 14.4 µM.
As to `O=C(CCCCCCC(=O)N1CCc2c([nH]c3ccccc23)C1)NO`, the Activity entry in series [2] and in [3] was “Toxic” each time.
As for `COc1ccc2[nH]c3c(c2c1)CCN(Cc1ccc(C(=O)NO)cc1)C3`, the IC50 at Histone deacetylase 1 came to 23.7 µM; in [6], 29.1 µM; in series [7], 12.6 µM; in series [1], 16.4 nM.
Take `O=C(NO)c1cccc(CN2CCc3[nH]c4ccccc4c3C2)c1`: the values for the IC50 in series [6] and in series [7] were 24.3 µM and 16.9 µM, respectively.
For `O=C(NO)c1ccc(CC(=O)N2CCc3c([nH]c4ccccc34)C2)cc1`, the result in the series with PC-12 [15] and in the series on SH-SY5Y [16] was inactive. Besides, the IC50 stood at 30.3 µM in [6] and 13.8 µM in series [7].
On to `O=C1O[C@H]([C@@H](O)CO)C(O)=C1O` [ASCORBIC ACID], for which the IC50 in series [6] was 23.8 µM; in series [7] it was 25.5 µM.
